Results as given in patent publication US20230278972A1, “SUBSTITUTED HALOALKYL SULFONANILIDE HERBICIDES” (FMC Corporation, priority 2020, published 2023).

Experiments:
Format in all cases: in vivo
[1] = system: barnyardgrass (Echinochloa crus-galli); assay: Test B1 flooded paddy test, barnyardgrass; conditions: 250 g ai/ha, Flood, applied to paddy water, 2-leaf stage, visually evaluated after 10 to 14 days
Source text: (§1) A dash (-) response means no test result.

[2] = system: Oat, Wild (wild oat, Avena fatua); assay: Test A1 postemergence, Oat, Wild; conditions: for Plant response rating, Oat, Wild: Postemergence; for Oat, Wild plant response rating: postemergence
Method in brief: (§2)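 Test compounds were formulated in a non-phytotoxic solvent mixture containing a surfactant. For preemergence, seeds sown in a loam soil–sand blend received a directed soil spray. For postemergence, potted plants in the same soil, 2 to 10 cm tall at the one- to two-leaf stage, were sprayed.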

[3] = system: blackgrass (Alopecurus myosuroides); assay: Test A1 preemergence, blackgrass
Method in brief: as §2

[4] = system: goosegrass (Eleusine indica); assay: Test A1 preemergence, goosegrass
Method in brief: as §2

[5] = system: galium (catchweed bedstraw, Galium aparine); assay: Test A1 postemergence, galium; conditions: for Plant response rating, Galium: Postemergence; for Galium plant response rating: postemergence
Method in brief: (§3)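 Seeds were first planted into a blend of loam soil and sand and given a preemergence directed soil spray. In parallel, pots of the same soil were sown for postemergence application once plants reached 2 to 10 cm and the one- to two-leaf stage. Both used surfactant-containing non-phytotoxic solvent formulations.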

[6] = system: Foxtail, Giant (giant foxtail, Setaria faberi); assay: Test A1 preemergence, Foxtail, Giant
Method in brief: as §2

[7] = system: rice (Oryza sativa); assay: Test B1 flooded paddy test, rice; conditions: 250 g ai/ha, Flood, applied to paddy water, 2-leaf stage, visually evaluated after 10 to 14 days
Source text: as §1

[8] = system: kochia (Bassia scoparia); assay: Test A1 postemergence, kochia; conditions: for Plant response rating, Kochia: Postemergence; for Kochia plant response rating: postemergence
Method in brief: as §3

[9] = system: Pigweed, Palmer (palmer amaranth, palmer pigweed, Amaranthus palmeri); assay: Test A1 postemergence, Pigweed, Palmer; conditions: for Plant response rating, Pigweed, Palmer: Postemergence; for Pigweed, Palmer plant response rating: postemergence
Method in brief: as §2

[10] = 31 g ai/ha, 0 to 100 scale (0 no effect, 100 complete control), 10 days
[11] = 31 g ai/ha, 0 to 100 scale (0 no effect, 100 complete control)
[12] = 125 g ai/ha, 0 to 100 scale, 0 no effect, 100 complete control

Row | Structure (SMILES) | Plant response rating, Barnyardgrass (0 to 100 scale, 0 is no effect, 100 is complete control) [1] | Plant response rating, Oat, Wild [2, 10] | Plant response rating, Oat, Wild ([2]; 125 g ai/ha, 0 to 100 scale) | Plant response rating, Blackgrass [3, 11] | Plant response rating, Blackgrass [3, 12] | Plant response rating, Goosegrass [4, 11] | Plant response rating, Goosegrass [4, 12] | Plant response rating, Galium [5, 10] | Plant response rating, Galium ([5]; 125 g ai/ha, 0 to 100 scale) | Plant response rating, Foxtail, Giant [6, 11] | Plant response rating, Foxtail, Giant [6, 12] | Plant response rating, Rice (0 to 100 scale, 0 is no effect, 100 is complete control) [7] | Plant response rating, Kochia [8, 10] | Plant response rating, Kochia ([8]; 125 g ai/ha, 0 to 100 scale) | Plant response rating, Pigweed, Palmer [9, 10] | Plant response rating, Pigweed, Palmer ([9]; 125 g ai/ha, 0 to 100 scale) | Oat, Wild plant response rating [2, 11] | Galium plant response rating [5, 11] | Kochia plant response rating [8, 11] | Pigweed, Palmer plant response rating [9, 11]
1 | Cc1c(NS(=O)(=O)C(F)(F)F)cc(C(=O)N2CC(C)OC(C)C2)c(C)c1C (stereo not shown) [Compound 328] | 40 | 0 | 0 | 20 | 30 | 40 | 80 | 80 | 100 | 20 | 100 | 0 | 10 | 60 | 30 | 40 | – | – | – | –
2 | C#CCN(C)C(=O)c1cc(NS(=O)(=O)C(F)(F)F)c(Cl)c(F)c1C [Compound 337] | 0 | 0 | 20 | 40 | 60 | 50 | 100 | 70 | 100 | 20 | 100 | 25 | 40 | 70 | 30 | 50 | – | – | – | –
3 | Cc1c(C(=O)N2CCOCC2)cc(N(COC(=O)C(C)(C)C)S(=O)(=O)C(F)(F)F)c(C)c1C [Compound 324, [[(Trifluoromethyl)sulfonyl][2,3,4-trimethyl-5-(4-morpholinylcarbonyl)phenyl]amino]methyl 2,2-dimethylpropanoate] | 90 | 0 | 0 | 20 | 30 | 80 | 100 | 50 | 80 | 90 | 100 | 0 | 30 | 50 | 30 | 70 | – | – | – | –
4 | CCc1cc(C)c(C2=NOC3(CCCC3)C2)cc1NS(=O)(=O)C(F)(F)F [Compound 311] | 0 | 0 | 0 | 20 | 40 | 10 | 60 | 0 | 0 | 0 | 10 | 0 | 0 | 0 | 0 | 0 | – | – | – | –
5 | CCC1ON=C(c2cc(NS(=O)(=O)C(F)(F)F)c(C)cc2C)C1CC (stereo not shown) [Compound 346] | 90 | 20 | 40 | 80 | 90 | 90 | 100 | 70 | 100 | 60 | 100 | 15 | 30 | 60 | 20 | 50 | – | – | – | –
6 | Cc1c(NS(=O)(=O)C(F)(F)F)cc(C(=O)N2CCC(C)CC2)c(C)c1C [Compound 366] | 15 | – | 0 | 0 | 50 | 10 | 80 | – | 100 | 100 | 100 | 10 | – | 30 | – | 20 | 0 | 50 | 0 | 10
7 | Cc1cc(F)c(NS(=O)(=O)C(F)(F)F)cc1C1=NOC2(CCCC2)C1 [Compound 303] | 0 | 0 | 20 | 0 | 40 | 50 | 100 | 60 | 90 | 80 | 100 | 0 | 0 | 60 | 0 | 20 | – | – | – | –
8 | Cc1c(C(=O)N2CCOCC2)cc(NS(=O)(=O)C(F)(F)F)c(Cl)c1F [Compound 321] | 15 | 0 | 10 | 0 | 70 | 70 | 100 | 100 | 100 | 30 | 100 | 10 | 40 | 80 | 50 | 70 | – | – | – | –
9 | C#CCN(C)C(=O)c1cc(N(COC(=O)C(C)(C)C)S(=O)(=O)C(F)(F)F)c(C)c(C)c1C [Compound 371] | 95 | – | 0 | 0 | 20 | 0 | 90 | – | 100 | 10 | 100 | 10 | – | 70 | – | 30 | 0 | 70 | 40 | 0
10 | Cc1c(C(=O)N2C[C@@H](C)O[C@@H](C)C2)cc(N(COC(=O)C(C)(C)C)S(=O)(=O)C(F)(F)F)c(C)c1C [Compound 331] | 98 | 0 | 20 | 0 | 0 | 0 | 90 | 60 | 90 | 0 | 70 | 0 | 0 | 10 | 0 | 20 | – | – | – | –
11 | Cc1cc(C)c(N(COC(=O)OC(C)C)S(=O)(=O)C(F)(F)F)cc1C1=NOC2CCCC12 (stereo not shown) [Compound 314] | 98 | 0 | 10 | 0 | 20 | 80 | 90 | 60 | 70 | 30 | 90 | 25 | 30 | 70 | 10 | 60 | – | – | – | –
12 | Cc1cc(C)c(-n2nccc(C)c2=O)cc1NS(=O)(=O)C(F)(F)F [Compound 281] | 0 | 0 | 0 | 0 | 0 | 10 | 90 | 0 | 0 | 0 | 100 | 0 | 0 | 10 | 0 | 40 | – | – | – | –
13 | Cc1cc(C)c(C2=NOC(OCC(C)C)C2)cc1NS(=O)(=O)C(F)(F)F (stereo not shown) [Compound 322] | 55 | 0 | 0 | 0 | 70 | 0 | 90 | 40 | 70 | 40 | 80 | 0 | 10 | 30 | 0 | 50 | – | – | – | –
